One data set relates to Ba/F3 EGFR Del19/C797S. Description: Cell proliferation inhibition experiment (Cell Titer-Glo). It is filed as cell-based. The note with it: Mus musculus, 72 hours, read-out: Ba/F3 EGFR Dell9/C797S IC50. The procedure:
(§1) Experimental objective: The objective of this test example is to test the inhibitory activity of compounds on the proliferation of different EGFR C797S drug-resistant mutant cell lines Ba/F3 EGFR Del19/T790M/C797S, Ba/F3 EGFR L858R/T790M/C797S, and Ba/F3 EGFR Del19/C797S. Experimental instruments: Centrifuge (Eppendorf 5810R); Microplate reader (BioTek Synergy H1) Pipette (Eppendorf or Rainin); Carbon dioxide incubator (Thermo 311) Cell counter (Life Countess II) Experimental reagents and consumables: • Ba/F3 EGFR Del19/T790M/C797S cells were purchased from KYinno Biotechnology Co., Ltd.; • Ba/F3 EGFR Del19/C797S cells were purchased from CoBioer Biosciences Co., Ltd.; • Ba/F3 EGFR L858R/T790M/C797S cells were purchased from CoBioer Biosciences Co., Ltd.; • Cell Titer-Glo was purchased from Promega, with a catalogue number of G7573; • RPMI 1640 was purchased from Gibco, with a catalogue number of 22400089; • FBS was purchased from Gibco, with a catalogue number of 10091148; • cell culture plates were purchased from Corning, with a catalogue number of 3610. Experimental methods: The inhibitory activity of the compound on the proliferation of different EGFR C797S drug-resistant mutant cell lines was detected using the Cell Titer-Glo method. The different cell lines were cultured in RPMI 1640 complete culture medium containing 10% FBS under conditions of 37°C and 5% CO2, the cells were collected by centrifugation when growing to a certain density, and adjusted to appropriate cell density after counting, the cells were spread on a white 96-well plate at 90 µL/well, and cultured in a 37°C, 5% CO2 incubator overnight, prepared compound solutions at different concentrations were added at 10 µL/well, corresponding solvent controls were set, and all wells were cultured in a 37°C, 5% CO2 incubator for 72 hours, 50 µL of CellTiter-Glo solution was added to each well, shook and mixed evenly, and incubated in the dark for 10 minutes, and a BioTek Synergy H1 microplate reader was used for reading. Experimental data processing method: The luminescence signal value was used to calculate the inhibition rate. Graphpad Prism software was used to fit the concentration and inhibition rate to a nonlinear regression curve, so as to obtain the IC50 value, as shown in the Table below for details.

Data set [1] deals with Ba/F3 EGFR Del19/T790M/C797S. Described as above. The settings on record: Mus musculus, 72 hours, read-out: Ba/F3 EGFR Del19_T790M_C797S IC50. It is filed as cell-based. The procedure: as §1
Data set [2] is described as follows: Rat pharmacokinetic evaluation test. It is filed as in vivo. The settings on record: male, po, SD rats, plasma, p.o. 5 mg/kg. The method, then: 1. Study objective: SD rats were used as test animals to study the pharmacokinetic behaviour of the compounds of the present invention in rats (plasma) after oral administration at a dose of 5 mg/kg. 2. Experimental scheme: 2.1 Experimental drugs: The example compounds of the present invention, made in house. 2.2 Experimental animals: 3 SD rats/group, male, from Shanghai Jiesijie Experimental Animal Co., Ltd., animal production license number (SCXK (Shanghai) 2013-0006 N0.311620400001794). 2.3 Preparation formulation: • Formulation of drug for oral administration: 20% solutol HS15 in 0.5% MC (methylcellulose) • 20 g of a Solutol HS15 solid and 0.5 g of a MC solid powder were weighed and dissolved in 80 mL of purified water, and the mixture was vortexed, mixed until uniform, and subjected to ultrasound treatment to obtain a clear solution of 20% solutol HS15 in 0.5% MC. The example compound was weighed into a 20 mL glass vial, the solution was added thereto and the mixture was subjected to ultrasound treatment for 10 minutes to obtain a clear solution at a concentration of 0.5 mg/mL. 2.4 Administration: 3 male SD rats were administered p.o. respectively after the rats were fasted overnight; and the p.o. dose was 5 mg/kg and the administration volume was 10 mL/kg. 2.5 Sample collection: Blood collection: Before and after administration to rats, 0.2 mL of blood was collected from the jugular vein at 0.25, 0.5, 1, 2, 4, 6, 8 and 24 h, and placed in an EDTA-K2 anticoagulation tube, which was centrifuged at 6000 rpm at 4°C for 6 min to separate plasma which was stored at -80°C; and the animals were fed 4 h after administration. 2.6 Sample treatment: • 1) Acetonitrile (160 µL) was added to plasma sample (40 µL) for precipitation, and the mixture was centrifuged at 3500 × g for 5-20 min. • 2) The treated supernatant solution was taken and subjected to LC/MS/MS to analyse the concentrations of the test compound. LC/MS/MS analysis instrument: AB Sciex API 4000 Qtrap. 2.7 Liquid phase analysis: • Liquid phase conditions: Shimadzu LC-20AD pump • Chromatographic column: Agilent ZORBAX XDB-C18 (50 × 2.1 mm, 3.5 µm), mobile phase: solution A: 0.1% formic acid in water, solution B: acetonitrile • Flow rate: 0.4 mL/min • Elution time: 0-4.0 min, with eluents as follows:
3. Experimental results and analysis: The main pharmacokinetic parameters were calculated using WinNonlin 6.1.

The nature of data set [3]: Hygroscopicity experiment (crystal forms of salts and crystal form A of free base). It is filed as physicochemical. The text has this: • 2.1 Experimental objective: The hygroscopicity of different crystal forms of salts of the compound was investigated under various relative humidity conditions to provide a basis for screening and storage of the crystal forms of salts of the compound. • 2.2 Experimental scheme: The crystal forms of salts of the compound were placed in saturated water vapor at different relative humidities to reach a dynamic equilibrium between the compound and the water vapor.
3.1 Experimental objective: The hygroscopicity of crystal form A of free base of the compound was investigated under various relative humidity conditions to provide a basis for screening and storage of the crystal forms of the compound.
3.2 Experimental scheme: The crystal form A of free base of the compound was placed in saturated water vapor at different relative humidities to reach a dynamic equilibrium between the compound and the water vapor. The percentage weight gain of the compound due to moisture absorption was calculated after the equilibrium.

Data set [4] in a line: Solubility experiments in different media, crystal forms of salts. It is filed as physicochemical. Set-up: thermodynamic solubility FaSSIF / thermodynamic solubility FaSSGF / thermodynamic solubility FeSSIF: unit not given here. The note with it: about 2 mg suspended for 24 hours, 37°C, HPLC, external standard method. The source says: 4.1 Experimental objective: The solubility of the crystal form A of phosphate, crystal form A of hydrochloride, crystal form A of sulphate, crystal form A of citrate, crystal form A of oxalate, crystal form A of maleate and crystal form A of salicylate in media such as artificial simulated gastric fluid (FaSSGF), fasted-state artificial simulated intestinal fluid (FaSSIF), and fed-state artificial simulated intestinal fluid (FeSSIF) was compared to provide a basis for the evaluation of the potential of the crystal forms of salts being manufactured as a drug. […]

Data set [5] can be described thus: Solid stability experiment of crystal form A of phosphate (5, 10, 20 and 30 days). It is filed as physicochemical. The settings on record: 60°C (GW, sealed), 50°C/75% RH (JS, unsealed), room temperature/92.5% RH (GS, unsealed). The procedure:
• 5.1 Experimental objective: To investigate and compare the stability of the crystal form A of phosphate under the three conditions of a high temperature of 60°C (GW, sealed), 50°C/75% RH (JS, unsealed), and room temperature/92.5% RH (GS, unsealed) and provide a basis for the screening of the crystal forms of salts and the storage of the salts of the compound. • 5.2 Experimental scheme: About 2 mg of crystal form A of phosphate was weighed into 2 mL dry and clean glass vials, respectively. The vials were respectively placed under the conditions of 60°C (GW, sealed), 50°C/75% RH (JS, unsealed), and room temperature/92.5% RH (GS, unsealed) for 5, 10, 20 and 30 days. […] Therefore, the crystal form can well meet the requirements of subsequent long-term storage and formulation processes.

In data set [6] the test system is Ba/F3 EGFR L858R/T790M/C797S. Nature of the data set: Cell proliferation inhibition experiment (Cell Titer-Glo). It is filed as cell-based. The settings on record: Mus musculus, 72 hours, read-out: Ba/F3 EGFR L858R_T790M_C797S IC50. The method, then: as §1

The AUC(0-t) is the area under the concentration-time curve up to a stated or last time point. The term Cmax denotes the maximum level reached in the sampled fluid or tissue. The term half-life denotes the time in which the quantity being followed falls by half. As usually defined, the thermodynamic solubility is the concentration in solution at equilibrium with solid.

Each structure is given as a SMILES string.

On to `Cc1nn(C)cc1-c1nccc(Nc2cc3c(C(C)C)c(F)cc(N4C[C@H](N(C)S(C)(=O)=O)[C@H]4C)c3cn2)n1` [Example 5, N-((2R,3S)-1-(3-((2-(1,3-dimethyl-1H-pyrazol-4-yl)pyrimidin-4-yl)amino)-6-fluoro-5-isopropylisoquinolin-8-yl)-2-methylazetidin-3-yl)-N-methylmethanesulphonamide], for which the IC50 in the data set on Ba/F3 EGFR Del19/C797S was 7.8 nM. In addition, in data set [1], the IC50 worked out at 4.5 nM. In data set [2], this molecule showed an AUC(0-t) of 2000 ng·h/mL, a Cmax of 157 ng/mL and a half-life of 3.9 h.

For the molecule `CC(C)c1c(F)cc(N2C[C@H](N(C)S(C)(=O)=O)[C@H]2C)c2cnc(Nc3ccnc(-c4cn(C)nc4Cl)n3)cc12` [crystal form A of phosphate, N-((2R,3S)-1-(3-((2-(3-chloro-1-methyl-1H-pyrazol-4-yl)pyrimidin-4-yl)amino)-6-fluoro-5-isopropylisoquinolin-8-yl)-2-methylazetidin-3-yl)-N-methylmethanesulphonamide], the “weight gain after moisture absorption” value in data set [3] (RH 80%) came out at 0.533%. The hygroscopicity entry in data set [3] (RH 80%, result in words) is given as “weak hygroscopicity”. Also, in data set [3] (after 1 cycle of moisture absorption and desorption, 0-95% relative humidity), the “crystal form transformation (XRPD pattern)” value is recorded as “no crystal form transformation occurred”. Besides, the “thermodynamic solubility FaSSGF” value in data set [4] (FaSSGF (artificial simulated gastric fluid)) is 0.010. For the same molecule, the “thermodynamic solubility FaSSIF” value in data set [4] (FaSSIF (fasted-state artificial simulated intestinal fluid)) was 0.203. The solubility (thermodynamic) at 24 h in data set [4] (thermodynamic from solid, FeSSIF (fed-state artificial simulated intestinal fluid)) was 1200 µg/mL. Besides, the “stability (impurity increase)” value in data set [5] is on record as “relatively stable”.

As to `CC(C)c1c(F)cc(N2C[C@H](N(C)S(C)(=O)=O)[C@H]2C)c2cnc(Nc3ccnc(-c4cn(C)nc4Cl)n3)cc12` [Example 2, N-((2R,3S)-1-(3-((2-(3-chloro-1-methyl-1H-pyrazol-4-yl)pyrimidin-4-yl)amino)-6-fluoro-5-isopropylisoquinolin-8-yl)-2-methylazetidin-3-yl)-N-methylmethanesulphonamide], in the data set on Ba/F3 EGFR Del19/C797S, the IC50 was determined as 6.2 nM. Moreover, in data set [1], the IC50 came to 4.5 nM. The IC50 in data set [6] worked out at 15 nM. Further, in data set [2], the AUC(0-t) was found to be 1770 ng·h/mL, the peak level (Cmax) was 142 ng/mL and the half-life was 3.9 h.

Turning to `CC(C)c1c(F)cc(N2C[C@H](CS(C)(=O)=O)[C@H]2C)c2cnc(Nc3ccnc(-c4cn(C)nc4Cl)n3)cc12` [Example 1, N-(2-(3-chloro-1-methyl-1H-pyrazol-4-yl)pyrimidin-4-yl)-6-fluoro-5-isopropyl-8-((2R,3S)-2-methyl-3-((methanesulphonyl)methyl)azetidin-1-yl)isoquinolin-3-amine], in the data set on Ba/F3 EGFR Del19/C797S, the IC50 worked out at 11 nM. The IC50 in data set [1] was 7.1 nM. Besides, the IC50 in data set [6] came to 14 nM. In addition, in data set [2], the AUC(0-t) was 2100 ng·h/mL, the maximum concentration (Cmax) is 178 ng/mL and the half-life is 2.3 h.

In the case of `Cc1nn(C)cc1-c1nccc(Nc2cc3c(C(C)C)c(F)cc(N4C[C@H](CS(C)(=O)=O)[C@H]4C)c3cn2)n1` [Example 4, N-(2-(1,3-dimethyl-1H-pyrazol-4-yl)pyrimidin-4-yl)-6-fluoro-5-isopropyl-8-((2R,3S)-2-methyl-3-((methanesulphonyl)methyl)azetidin-1-yl)isoquinolin-3-amine], the IC50 in the data set with Ba/F3 EGFR Del19/C797S was 18 nM; in data set [1], 6.8 nM.

Turning to `CC(C)c1c(F)cc(N2C[C@H](NS(C)(=O)=O)[C@H]2C)c2cnc(Nc3ccnc(-c4cn(C)nc4Cl)n3)cc12` [Example 14, N-((2R,3S)-1-(3-((2-(3-chloro-1-methyl-1H-pyrazol-4-yl)pyrimidin-4-yl)amino)-6-fluoro-5-isopropylisoquinolin-8-yl)-2-methylazetidin-3-yl)methanesulphonamide], the IC50 with Ba/F3 EGFR Del19/C797S came out at 2.6 nM; in data set [6] it was 8.8 nM.

The record behind these values is EP4778921A1, “SALT FORM AND CRYSTAL FORM OF NITROGEN-CONTAINING HETEROCYCLIC DERIVATIVE INHIBITOR, AND PREPARATION METHOD THEREFOR AND USE THEREOF” (Shanghai Hansoh Biomedical Co., Ltd., priority 2023, dated 2025).
